These results are taken from US11959100B2, “Method for culture of cells” (Kyoto University, priority 2017, dated 2024).

The test system of experiment [1] is neural crest cells (NCCs). Nature of the experiment: Expansion (suspension) culture of neural crest cells: percentage of SOX10 expression-positive cells by flow cytometry. The class given is cell-based, Human. As to conditions: for influence of concentration on change in the percentage of SOX10 expression-positive cells: bFGF and EGF 20 or 40 ng/ml. The source says:
(§1) Human iPSCs were allowed to differentiate into neural crest cells (NCCs) according to the method described in Non Patent Literature 1. The iPSCs used were SOX10-Nano-Lantern Reporter Human iPSCs (201B7 line) described in Non Patent Literature 4. This cell line has an insert of a nucleotide sequence encoding a fluorescent protein Nano-Lantern (Saito K. et al., “Luminescent proteins for high-speed single-cell and whole-body imaging.” Nat. Commun., 2012; 3: 1262) downstream of SOX10 gene, a marker gene of NCCs, and expresses a fusion protein of SOX10 and Nano-Lantern under the control of SOX10 promoter.
(§2) iPSCs were inoculated to a Matrigel-coated dish, adherent-cultured for 4 days in TeSR1 medium, and then adherent-cultured for 10 days in CDM medium containing 10 μM SB431542 (TGFβ inhibitor) and 1 μM CHIR99021 (GSK3β inhibitor), and thereby allowed to differentiate into NCCs.
[…] The cells were passaged every 7 days.
(§3) Change in total cell number after the start of expansion culture is shown in FIG. 1, and change in the percentage of SOX10 expression-positive cells is shown in FIG. 2. In order to measure the percentage of SOX10 expression-positive cells, an aggregated cell mass was dissociated using StemPro Accutase Cell Dissociation Reagent (Invitrogen Corp.) to prepare single-cell suspensions. The single-cell suspensions in FACS buffer (2% BSA HBSS) supplemented with 1 μg/mL PI (propidium iodide, Wako Pure Chemical Industries, Ltd.) were filtered through a tube with 35 μm nylon mesh (BD Falcon) and then analyzed using a flow cytometer (FACS Aria, BD Biosciences) to measure the ratio of GFP-positive cells in live cells (PI-negative cells). […] The expressed SOX10 serves as a marker of NCCs having multipotency.
A general note: A flow cytometer gives signals particle by particle.

The test system of experiment [2] is neural crest cells (NCCs). Nature of the experiment: Expansion (suspension) culture of neural crest cells: total cell number / rate of cell proliferation. The class given is cell-based, Human. Conditions: for influence of concentration on change in total cell number: bFGF and EGF 20 or 40 ng/ml, CHIR99021 1, 2, 3, 3.5, 4, 4.5 or 5 μM.
Description: as §1, §2
NCCs were detached from the dish and suspension-cultured in CDM medium containing 10 μM SB431542, 3 μM CHIR99021, 40 ng/ml bFGF and 40 ng/ml EGF. The cells were passaged every 7 days.
as §3

The test system of experiment [3] is neural crest cells. Conditions: bFGF 0 pg/ml to 10 ng/ml; adherent culture; cited from earlier work.
Experiment [4] deals with GSK3β (Homo sapiens, UniProt P49841). Nature of the experiment: GSK3β inhibitory activity, CellSensor LEF/TCF-bla HCT-116 reporter assay. The class given is cell-based. The source says:
In the Wnt/β-catenin pathway, GSK3β functions to phosphorylate β-catenin in the absence of Wnt-ligand. The phosphorylated β-catenin is ubiquitinated and degraded within the proteasome. Therefore, gene expression downstream of the Wnt-β-catenin pathway is suppressed. If GSK3β in this pathway is inhibited, β-catenin is translocated into the nucleus, without being degraded, to induce gene expression downstream of the Wnt-β-catenin pathway together with other transcription factors such as T-cell factor (TCF)/lymphoid enhancer factor (LEF). CellSensor LEF/TCF-bla HCT-116 Cell Line (Thermo Fisher Scientific Inc., K1676) stably incorporates therein LEF/TCF and incorporates a reporter gene (beta-lactamase reporter gene) so as to express the reporter gene under the control of LEF/TCF. The expression of the reporter gene in this cell line in the absence of the Wnt-ligand serves as an index for the inhibition of the function (β-catenin phosphorylation function) of GSK3β. The GSK3β inhibitory activity of the GSK3β inhibitor was measured by assay using this cell line.
The assay was conducted in accordance with the protocol of Invitrogen Corp. (CellSensor® LEF/TCF-bla HCT 116 Cell-based Assay Protocol).
Specifically, LEF/TCF-bla HCT-116 Cells were suspended in an assay medium (OPTI-MEM, 0.5% dialyzed FBS, 0.1 mM NEAA, 1 mM sodium pyruvate, 100 U/mL/100 μg/mL Pen/Strep) (312,500 cells/mL). The cell suspension was inoculated to each well of an assay plate (10,000 cells/well), and cultured for 16 to 24 hours.
A beta-lactamase substrate solution (LiveBLAzer-FRET B/G (CCF4-AM) Substrate Mixture) was added to each well (8 μL/well) and incubated for 2 hours. A fluorescence value was measured in a fluorescence plate reader. The measurement was performed in two wells per each concentration condition.
A general note: A reporter such as luciferase makes a cellular process visible.

The test system of experiment [5] is neural crest cells. As to conditions: 1 μM CHIR99021; culture for 7 days; suspension culture; cited from earlier work.
Where [6] appears, read: bFGF 10, 12.5, 15.0 or 17.5 ng/ml, CHIR99021 1.5 μM.

GSK3β, sequence (P49841 whole entry): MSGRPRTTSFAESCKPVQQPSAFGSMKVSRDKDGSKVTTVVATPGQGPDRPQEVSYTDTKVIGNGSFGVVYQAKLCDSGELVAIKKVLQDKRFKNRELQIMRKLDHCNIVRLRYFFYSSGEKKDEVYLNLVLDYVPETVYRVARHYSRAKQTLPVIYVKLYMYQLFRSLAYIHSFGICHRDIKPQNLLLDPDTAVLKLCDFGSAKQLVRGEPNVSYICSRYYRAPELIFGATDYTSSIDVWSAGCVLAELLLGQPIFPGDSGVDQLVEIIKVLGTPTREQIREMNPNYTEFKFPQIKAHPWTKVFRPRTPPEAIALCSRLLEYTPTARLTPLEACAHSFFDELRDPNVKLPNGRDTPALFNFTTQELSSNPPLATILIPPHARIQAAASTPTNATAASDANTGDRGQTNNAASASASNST

Take “bFGF: basic fibroblast growth factor (bFGF (also referred to as FGF2)), medium additive”: the “influence of bFGF concentration on the percentage of SOX10 expression positivity” value in experiment [1] (setting [6]) is recorded as “no influence”. For the same compound, in experiment [1], the “influence of concentration on change in the percentage of SOX10 expression-positive cells” value is “no influence”. In experiment [2] (setting [6]), the “behavior of change in total cell number” value is “substantially the same”. Further, in experiment [2], the “influence of concentration on change in total cell number” value is reported as “no influence”. Also, the “number and ratio of neural crest cells in a cultured cell population” value in experiment [3] is listed as “decreased in a concentration-dependent manner”.
For the compound `Cc1c[nH]c(-c2cnc(NCCNc3ccc(C#N)cn3)nc2-c2ccc(Cl)cc2Cl)n1` [CHIR99021, 6-[[2-[[4-(2,4-dichlorophenyl)-5-(4-methyl-1H-imidazol-2-yl)-2-pyrimidinyl]amino]ethyl]amino]nicotinonitrile], the “percentage of SOX10 expression-positive cells” value in experiment [1] (3 μM CHIR99021, 10 μM SB431542, 40 ng/ml bFGF, 40 ng/ml EGF, on 121 days of culture) is on record as “high percentage of SOX10 expression-positive cells was confirmed”; in experiment [1] (CHIR99021 1 μM, on 21 days of culture) it was “decrease in the percentage of SOX10 expression-positive cells was observed”; in experiment [1] (CHIR99021 1 μM, on 63 days of culture) it was not above 25%; in experiment [1] (CHIR99021 2 μM, on 63 days of culture), not below 55%; in experiment [1] (CHIR99021 5 μM, on 63 days of culture), not above 5%; in experiment [1] (CHIR99021 5 μM, up to 42 days of culture), not below 55%. In experiment [1] (CHIR99021 3 to 4.5 μM, on 121 days of culture), the “percentage of SOX10 expression-positive cells” value was not below 90%. Besides, the “time of culture at which the number of cells that maintained multipotency decreased” value in experiment [1] (CHIR99021 1 μM) was determined as 21 days; in experiment [1] (CHIR99021 5 μM), 42 days. For the same compound, the “period over which multipotency was maintained” value in experiment [1] (CHIR99021 2 μM) is recorded as not below 63 days. Moreover, the “period of culture and proliferation of neural crest cells that maintained multipotency” value in experiment [1] (CHIR99021 3 to 4.5 μM) is given as not below 112 days. In addition, in experiment [2] (3 μM CHIR99021, 10 μM SB431542, 40 ng/ml bFGF, 40 ng/ml EGF, whole culture period), the “change in total cell number after the start of expansion culture” value is listed as “increased over the whole period”. Also, the “influence of concentration on change in total cell number” value in experiment [2] is recorded as “no influence”. In addition, the “Fluorescence value Well 1” value in experiment [4] (0.316 nM) is given as 6; in experiment [4] (1.00 nM), 0; in experiment [4] (3.16 nM) it was 0; in experiment [4] (10.0 nM), 12; in experiment [4] (31.6 nM), 21; in experiment [4] (100 nM), 75. Also, the “Fluorescence value Well 1” value in experiment [4] (316 nM) is recorded as 101; in experiment [4] (1000 nM), 114; in experiment [4] (3160 nM), 99; in experiment [4] (10000 nM) it was 88. Moreover, the “Fluorescence value Well 2” value in experiment [4] (0.316 nM) is on record as 0; in experiment [4] (1.00 nM), 0; in experiment [4] (3.16 nM), 14; in experiment [4] (10.0 nM), 23; in experiment [4] (31.6 nM), 45; in experiment [4] (100 nM), 60. For the same compound, the “Fluorescence value Well 2” value in experiment [4] (316 nM) is recorded as 96; in experiment [4] (1000 nM) it was 113; in experiment [4] (3160 nM), 136; in experiment [4] (10000 nM) it was 73. Besides, the “GSK3β inhibitory activity in terms of the fluorescence value (mean from the two wells)” value in experiment [4] (1 μM) was 113.5. Besides, the “presence of Sox10-positive cells” value in experiment [5] was “presence of Sox10-positive cells was confirmed”.
For `Cn1cc(C2=C(c3cccc(N)c3)C(=O)NC2=O)c2ccccc21` [CP21R7, 3-(3-amino-phenyl)-4-(1-methyl-1H-indol-3-yl)-pyrrole-2,5-dione], the “time of culture at which the number of cells that maintained multipotency decreased” value in experiment [1] (CP21R7 0.1 μM) amounted to 21 days. Moreover, the “percentage of SOX10 expression-positive cells” value in experiment [1] (CP21R7 0.1 μM, on 21 days of culture) was “started to decrease”; in experiment [1] (CP21R7 0.5 or 1 μM, on 84 days of culture), “high percentage of SOX10 expression-positive cells was confirmed”. Besides, in experiment [1] (CP21R7 0.5 to 1 μM), the “period of culture and proliferation of neural crest cells that maintained multipotency” value was not below 84 days.
On to “EGF: epidermal growth factor, medium additive”, for which the “influence of concentration on change in the percentage of SOX10 expression-positive cells” value in experiment [1] is recorded as “no influence”. Moreover, in experiment [2], the “influence of concentration on change in total cell number” value was “no influence”.
